Measured values: ChEMBL document CHEMBL4665660, “A novel indirubin derivative that increases somatic cell plasticity and inhibits tumorigenicity” (Bioorg Med Chem, 2019)
Activity calls are given as the source filed them. The calls are words filed in the database; no cut-off is given here.

Experiments:
[1] = Induction of cellularization in human primary myotube assessed as beta-actin level at 20 uM incubated for 72 hrs by Western blot analysis (reference value: 1.095); assay type: tissue-based
[2] = Induction of cellularization in human primary myotube assessed as alpha-tubulin level at 20 uM incubated for 72 hrs by Western blot analysis (reference value: 0.674); assay type: functional
[3] = Induction of cellularization in human primary myotube assessed as alpha-tubulin level at 100 nM in presence of BIO incubated for 72 hrs by Western blot analysis (reference value: 0.674); assay type: functional
[4] = Induction of cellularization in human primary myotube assessed as beta-actin level at 100 nM in presence of BIO incubated for 72 hrs by Western blot analysis (reference value: 1.095); assay type: tissue-based; conditions: 0.1 µM
HCT-116 [5] = experiment: Cytotoxicity against human HCT-116 cells assessed as reduction in cell viability incubated for 72 hrs by MTT assay; assay type: functional, cell-based; conditions: HCT-116, 72 h
MDA-MB-231 [6] = experiment: Induction of apoptosis in human MDA-MB-231 cells assessed as cleaved caspase-7 at 500 nM incubated for 72 hrs by Western blot assay (reference value: 0.349); assay type: functional
MDA-MB-231 [7] = experiment: Inhibition of cell invasion in human MDA-MB-231 cells at 50 nM incubated for 72 hrs by crystal violet staining based assay; assay type: functional
C2C12 [8] = experiment: Osteogenic activity in mouse C2C12 cells assessed as increase in plasticity at 1 uM preincubated for 72 hrs followed by incubation with osteogenic factor for 10 days by Alizarin red staining based light microscopy; assay type: functional, cell-based; conditions: time 13.0 day
HCT-116 [9] = experiment: Induction of apoptosis in human HCT-116 cells assessed as cleaved PARP at 500 nM incubated for 72 hrs by Western blot assay (reference value: 1.127); assay type: functional
[10] = biological target: T1, Aurora kinase A (Homo sapiens) (UniProt O14965); experiment: Inhibition of recombinant human N-terminal His-tagged Aurora A expressed in Sf21 cells using peptide substrate at 1 uM by TR-FRET assay relative to control
T1 sequence (whole entry): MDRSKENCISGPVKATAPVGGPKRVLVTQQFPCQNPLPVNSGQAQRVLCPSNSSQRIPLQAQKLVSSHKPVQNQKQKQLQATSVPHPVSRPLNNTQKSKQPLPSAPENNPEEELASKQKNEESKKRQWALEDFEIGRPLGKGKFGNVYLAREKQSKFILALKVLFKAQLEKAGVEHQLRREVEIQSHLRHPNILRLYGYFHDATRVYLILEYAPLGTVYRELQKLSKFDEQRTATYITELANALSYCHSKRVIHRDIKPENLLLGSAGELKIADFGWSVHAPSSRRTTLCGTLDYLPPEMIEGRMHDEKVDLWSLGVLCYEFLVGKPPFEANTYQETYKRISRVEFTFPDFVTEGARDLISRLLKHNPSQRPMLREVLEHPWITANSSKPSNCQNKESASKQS

C2C12 [11] = experiment: Osteogenic activity in mouse C2C12 cells assessed as increase in osteoponin-expression at 1 uM preincubated for 72 hrs followed by incubation with osteogenic factor for 10 days by RT-PCR analysis; assay type: functional, cell-based; conditions: time 13.0 day
C2C12 [12] = experiment: Osteogenic activity in mouse C2C12 cells assessed as increase in alkaline phosphatase at 1 uM preincubated for 72 hrs followed by incubation with osteogenic factor for 10 days by fluorescence based assay; assay type: functional, cell-based; conditions: time 13.0 day
C2C12 [13] = experiment: Osteogenic activity in mouse C2C12 cells assessed as increase in mineralization at 1 uM preincubated for 72 hrs followed by incubation with osteogenic factor for 10 days; assay type: functional, cell-based; conditions: time 13.0 day
MDA-MB-231 [14] = experiment: Induction of apoptosis in human MDA-MB-231 cells assessed as cleaved PARP at 500 nM incubated for 72 hrs by Western blot assay (reference value: 0.519); assay type: functional
[15] = biological target: T1, Aurora kinase A (Homo sapiens); experiment: Inhibition of recombinant human N-terminal His-tagged Aurora A expressed in Sf21 cells using peptide substrate by TR-FRET assay
MDA-MB-231 [16] = experiment: Antimetastatic activity in human MDA-MB-231 cells xenografted in zebra fish at 10 uM incubated for 96 hrs by fluorescence microscopy; assay type: functional, cell-based
[17] = biological target: Glycogen synthase kinase-3 beta (Homo sapiens) (UniProt P49841); experiment: Inhibition of GSK3beta (unknown origin) using PASVPPSPSLSRHSSPHQpSED as substrate at 1 uM preincubated for 10 mins followed by substrate addition and measured after 30 mins by TR-FRET assay relative to control
Glycogen synthase kinase-3 beta (Homo sapiens), sequence (P49841 whole entry, looked up): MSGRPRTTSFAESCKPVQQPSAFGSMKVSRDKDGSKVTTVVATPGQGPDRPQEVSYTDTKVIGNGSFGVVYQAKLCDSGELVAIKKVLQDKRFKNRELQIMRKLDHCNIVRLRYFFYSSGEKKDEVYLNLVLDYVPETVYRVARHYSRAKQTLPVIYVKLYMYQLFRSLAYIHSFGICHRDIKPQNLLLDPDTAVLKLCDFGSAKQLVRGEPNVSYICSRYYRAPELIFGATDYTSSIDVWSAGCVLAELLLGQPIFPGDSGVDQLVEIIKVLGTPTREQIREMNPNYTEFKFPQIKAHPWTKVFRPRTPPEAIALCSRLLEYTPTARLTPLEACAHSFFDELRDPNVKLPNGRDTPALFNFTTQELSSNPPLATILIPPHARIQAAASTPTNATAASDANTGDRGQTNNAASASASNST

C2C12 [18] = experiment: Induction of cell cycle arrest in mouse C2C12 cells assessed as S phase at 1 uM incubated for 72 hrs by propidium iodide based flow cytometry (reference value: 10.5 %); assay type: functional
C2C12 [19] = experiment: Induction of cell cycle arrest in mouse C2C12 cells assessed as G1 phase at 1 uM incubated for 72 hrs by propidium iodide based flow cytometry (reference value: 61.2 %); assay type: functional
C2C12 (Mus musculus) [20] = experiment: Induction of cellularization in mouse C2C12 myotube assessed as reduction in cell proliferation at 1 uM incubated for 72 hrs by EdU staining based inverted fluorescence microscopy
[21] = biological target: Glycogen synthase kinase-3 beta (Homo sapiens) (UniProt P49841); experiment: Inhibition of GSK3beta (unknown origin) using PASVPPSPSLSRHSSPHQpSED as substrate preincubated for 10 mins followed by substrate addition and measured after 30 mins by TR-FRET assay; conditions: time 40.0 mins
C2C12 [22] = experiment: Induction of cell cycle arrest in mouse C2C12 cells assessed as G2/M phase at 1 uM incubated for 72 hrs by propidium iodide based flow cytometry (reference value: 19.3 %); assay type: functional
NIH3T3 [23] = experiment: Adipogenic activity in mouse NIH/3T3 cells assessed as increase in insulin-stimulated glucose uptake at 1 uM preincubated for 72 hrs followed by incubation with adipogenic factors for 10 days by […] probe based fluorescence assay; assay type: functional, cell-based; conditions: time 13.0 day
NIH3T3 [24] = experiment: Downregulation of alpha-SMA in mouse NIH/3T3 cells at 1 uM incubated for 72 hrs by immunofluorescence microscopy; assay type: functional, cell-based
NIH3T3 [25] = experiment: Adipogenic activity in mouse NIH/3T3 cells assessed as […] in epinephrine-stimulated fatty acid release at 1 uM preincubated for 72 hrs followed by incubation with adipogenic factors for 10 days by colorimetric assay; assay type: functional, cell-based
NIH3T3 [26] = experiment: Downregulation of alpha-SMA in mouse NIH-3T3 cells at 1 uM incubated for 72 hrs by Western blotting assay; assay type: functional, cell-based
[27] = Toxicity in zebra fish embryo assessed as reduction in swimming ability at 20 to 40 uM; parameters: species or system Danio rerio; conditions: zebrafish, dose 20-40 µM
[28] = Toxicity in zebra fish embryo assessed as skeletal abnormalities at 20 to 40 uM; parameters: species or system Danio rerio; conditions: zebrafish, dose 20-40 µM
MDA-MB-231 [29] = experiment: Cytotoxicity against human MDA-MB-231 cells assessed as reduction in cell viability incubated for 72 hrs by MTT assay; assay type: functional, cell-based; conditions: MDA-MB-231, 72 h
[30] = Induction of cellularization in human primary myotube assessed as alpha-tubulin level at 1 uM incubated for 72 hrs by Western blot analysis (reference value: 0.674); assay type: functional
[31] = Toxicity in zebra fish embryo assessed as reduction in cell viability at 40 uM; parameters: species or system Danio rerio; conditions: zebrafish
C2C12 (Mus musculus) [32] = experiment: Induction of cellularization in mouse C2C12 myotube at 1 uM incubated for 72 hrs by microscopic analysis
[33] = Induction of cellularization in human primary myotube assessed as beta-actin level at 1 uM incubated for 72 hrs by Western blot analysis (reference value: 1.095); assay type: tissue-based
NIH3T3 [34] = experiment: Adipogenic activity in mouse NIH/3T3 cells assessed as increase in lipid accumulation at 1 uM preincubated for 72 hrs followed by incubation with adipogenic factors for 10 days by Oil red O staining based light microscopy; assay type: functional, cell-based; conditions: time 13.0 day
HCT-116 [35] = experiment: Induction of apoptosis in human HCT-116 cells assessed as cleaved caspase-7 at 500 nM incubated for 72 hrs by Western blot assay (reference value: 0); assay type: functional
[36] = Induction of cellularization in human primary myotube assessed as alpha-tubulin level at 5 uM in presence of reversine incubated for 72 hrs by Western blot analysis (reference value: 0.674); assay type: functional
[37] = Induction of cellularization in human primary myotube assessed as beta-actin level at 5 uM in presence of reversine incubated for 72 hrs by Western blot analysis (reference value: 1.095); assay type: tissue-based

Compound: COc1ccc(CNc2nc(NCc3ccc(OC)cc3)c3ncn(C(C)C)c3n2)cc1 [MYOSEVERIN]
- fold change (FC) [1]: 1.139
- fold change (FC) [2]: 0

Compound: COC(=O)[C@H]1[C@H]2C[C@@H]3c4[nH]c5cc(OC)ccc5c4CCN3C[C@H]2C[C@@H](OC(=O)c2cc(OC)c(OC)c(OC)c2)[C@@H]1OC [RESERPINE]
- fold change (FC) [3]: 0.758
- fold change (FC) [4]: 1.388

Compound: Cl.NCCO/N=C1/C(=C2/C(=O)Nc3ccc([N+](=O)[O-])cc32)Nc2ccc(O)cc21
- IC50 (HCT-116 [5]): 0.302 µM
- fold change (FC) (MDA-MB-231 [6]): 0.674
- inhibition (MDA-MB-231 [7]): Active
- Activity (C2C12 [8]): Active
- fold change (FC) (HCT-116 [9]): 1.129
- inhibition [10]: 47.7%
- Activity (C2C12 [11]): Active
- Activity (C2C12 [12]): Active
- Activity (C2C12 [13]): Active
- fold change (FC) (MDA-MB-231 [14]): 1.962
- inhibition [15]: Dose-dependent effect
- Activity (MDA-MB-231 [16]): Active
- inhibition [17]: 99.8%
- Activity (C2C12 [18]): 18%
- Activity (C2C12 [19]): 33.6%
- Activity (C2C12 (Mus musculus) [20]): Active
- inhibition [21]: Dose-dependent effect
- Activity (C2C12 [22]): 35%
- Activity (NIH3T3 [23]): Active
- Activity (NIH3T3 [24]): Active
- Activity (NIH3T3 [25]): Active
- Activity (NIH3T3 [26]): Active
- Activity [27]: Toxic
- Activity [28]: Toxic
- IC50 (MDA-MB-231 [29]): 0.738 µM
- fold change (FC) [30]: 1.064
- Activity [31]: Toxic
- Activity (C2C12 (Mus musculus) [32]): Active
- fold change (FC) [33]: 1.451
- Activity (NIH3T3 [34]): Active
- fold change (FC) (HCT-116 [35]): 1.115

Compound: O=C1Nc2cc(Br)ccc2/C1=C1/Nc2ccccc2/C1=N\O [6BIO]
- fold change (FC) [36]: 0.758
- fold change (FC) [37]: 1.388
